Values after ≈ are worked out from the molar mass of the structure shown.
Columns and labels:
[1] = tested on: HCT-116 human colon carcinoma cells; assay: Cytotoxicity, growth inhibition (MTT); assay type: cell-based; conditions: Homo sapiens, HCT-116, 120 h, read-out: IC50: half inhibitory concentration, HCT-116
Experimental: (§1) The cytotoxic activity of aurachin D (4) and analogues 9–11 and 17–19 was evaluated in growth inhibition experiments on mammalian cell lines (Table 2). After 5 days treatment, half inhibitory concentrations (IC50) were determined for human HCT-116 colon carcinoma and human K562 myelogenous leukemia cells. […]
(§2) was further incubated for 1.5 h. The medium was then discarded and 100 µL 2-propanol/10 N HCl (250:1) was added in order to dissolve formazan granules. The absorbance at 570 nm was measured using a microplate reader (EL808, Bio-Tek Instruments Inc.) and cell viability was expressed as a percentage relative to the respective solvent control. […]

[2] = tested on: Micrococcus luteus; assay: MIC determination; assay type: cell-based; conditions: duplicate, mean ±SD
Experimental: (§3) MIC determination: Indicator strains were obtained from the German Collection of Microorganisms and Cell Cultures (Deutsche Sammlung für Mikroorganismen und Zellkulturen, DSMZ) or were part of our internal strain collection. All microorganisms were handled under standard conditions recommended by the depositor. Overnight […]
(§4) cultures of bacteria were prepared in EBS medium (0.5% casein peptone, 0.5% proteose peptone, 0.1% meat peptone, 0.1% yeast extract; pH 7.0). Yeasts and molds were grown in Myc medium (1% phytone peptone, 1% glucose, 50 mM
(§5) HEPES, pH 7.0). The overnight cultures of microorganisms were diluted to OD600 0.01 (bacteria) or 0.05 (yeasts/molds) in the respective growth medium. Serial dilutions of compounds were prepared as duplicates in sterile 96-well plates. The cell suspension was added and microorganisms were grown overnight on a microplate shaker (900 rpm, 30 °C or 37 °C). Growth inhibition was assessed by measuring the OD600 on a plate reader (POLARstar, BMG Labtech). MIC50 values were determined as averages relative to respective control samples by sigmoidal curve fitting. […]

[3] = tested on: Staphylococcus aureus Newman (MSSA); assay: MIC determination; assay type: cell-based; conditions: duplicate, mean ±SD
Experimental: as §3, §4, §5

[4] = tested on: Escherichia coli (TolC); assay: MIC determination; assay type: cell-based; conditions: read-out: MIC50 Escherichia coli (TolC)
Experimental: as §3, §4, §5

[5] = tested on: Staphylococcus aureus DSM11822 (MRSA); assay: MIC determination; assay type: cell-based; conditions: duplicate, mean ±SD
Experimental: as §3, §4, §5

[6] = tested on: Bacillus subtilis DSM10; assay: MIC determination; assay type: cell-based; conditions: duplicate, mean ±SD; for MIC50: Bacillus subtilis, DSM10
Experimental: as §3, §4, §5

[7] = tested on: Klebsiella pneumoniae DSM30104; assay: MIC determination; assay type: cell-based; conditions: duplicate, mean ±SD
Experimental: as §3, §4, §5

[8] = tested on: Escherichia coli DH5α (wt); assay: MIC determination; assay type: cell-based; conditions: duplicate, mean ±SD
Experimental: as §3, §4, §5

[9] = tested on: bacterial cytochrome bd; design: method as in PMID 7827023; conditions: cited from earlier work
[10] = tested on: Vero cells (nontumor cells); assay: Cytotoxicity on Vero cells (MTT); assay type: cell-based; conditions: 48 h incubation
Experimental: was further incubated for 1.5 h. The medium was then discarded and 100 µL 2-propanol/10 N HCl (250:1) was added in order to dissolve formazan granules. The absorbance at 570 nm was measured using a microplate reader (EL808, Bio-Tek Instruments Inc.) and cell viability was expressed as a percentage relative to the respective solvent control. VERO cells: VERO cells were seeded into 96-well microplates at 10^5 cells per mL in RPMI supplemented with 10% foetal calf serum.
After 24 h, the cells were washed and two microliters of two-fold serial dilutions of each compound (10 mg/mL) was added to 100 μL of medium. Cells were then incubated for 48 h at 37 ° C under a 5% CO2 atmosphere. At the end of incubation, 20 µL of MTT solution (5 mg/mL) was added to each well and further incubated for 4 h at 37 °C to allow the formation of formazan. The crystals of formazan were then dissolved with 100 µL of a freshly prepared solution of sodium dodecyl sulfate (SDS) 10% (15 mL) and HCl 1 N (150 µL). The optical density of each well was measured at 595 nm using a multiwell plate reader. The 50% inhibition concentration was then determined by curve fitting.
MMP assay: Human U-2 OS osteosarcoma cells (HTB-96) were obtained from the American Type Culture Collection (ATCC) and were cultured under the conditions recommended by the depositor. Cells from actively growing cultures were harvested and seeded at 8 × 10^3 cells per well in 96-well imaging plates (BD Falcon). After 1 d cells reached approximately 60% confluency and were treated with aurachin analogues at the assigned concentrations for 16 h. In addition, cells were stimulated with 1 µM FCCP [carbonyl cyanide 4-(trifluoromethoxy)phenylhydrazone] as a positive control 1 h prior to the measurement. For labeling, cells were washed twice with assay buffer ([…], 5.4 mM KCl, 2 mM MgCl2, 10 mM glucose, 2 mM CaCl2, 10 mM HEPES; pH 7.35) and 100 µL of a staining solution (50 nM TMRM,

[11] = tested on: Plasmodium falciparum FcB1 (chloroquine-resistant); assay: In vitro antiplasmodial assay ([3H]-hypoxanthine incorporation); assay type: cell-based; conditions: for IC50: Plasmodium falciparum, FCB1, triplicate (except compound 24), mean ±SD, read-out: IC50 P. falciparum FcB1; for antiplasmodial selectivity index: Vero cytotoxic concentration / concentration active on P. falciparum FcB1
Experimental: In vitro antiplasmodial assays: The chloroquine-resistant strain FcB1/Colombia of Plasmodium falciparum was maintained in vitro on human erythrocytes in RPMI 1640 medium supplemented by 8% (v/v) heat-inactivated human serum, at 37 °C, under an atmosphere of 3% CO2, 6% O2, and 91% N2. In vitro drug susceptibility assays was measured by [3H]-hypoxanthine incorporation as described. Drugs were prepared in DMSO at a 10 mg/mL concentration. Compounds were serially diluted two-fold with 100 µL culture medium in 96-well plates. Asynchronous parasite cultures (100 µL, 1% parasitaemia and 1% final hematocrite) were then added to each well and incubated for 24 h at 37 °C prior to the addition of 0.5 µCi of [3H]- hypoxanthine (GE Healthcare, France, 1 to 5 Ci·mmol/mL) per well. After a further incubation of 24 h, plates were frozen and thawed. Cell lysates were then collected onto glass-fiber filters and counted in a liquid scintillation spectrometer. The growth inhibition for each drug concentration was determined by comparison of the radioactivity incorporated in the treated culture with that in the control culture maintained on the same plate. The concentration causing 50% growth inhibition (IC50) was obtained from the drug concentration–response curve and the results were expressed as the mean values ± standard deviations determined from several […]
independent experiments. Chloroquine diphosphate (Sigma–Aldrich) was used as antimalarial drug control. […]

[12] = Cytotoxicity, growth inhibition (MTT); assay type: cell-based, human; conditions: human, cell line not named at the place (Table 2: HCT-116 and K562); read-out: cytotoxic activity (IC50) on mammalian cell lines
Experimental: as §1, §2

CC(C)=CCC/C(C)=C/CC/C(C)=C/Cc1c(C)[nH]c2ccccc2c1=O [compound 4, aurachin D]
IC50 [1]: 2.23 ± 0.76 µg/mL (≈ 6.13 µM) | MIC50 [2]: 1.47 ± 0.12 µg/mL (≈ 4.04 µM) | MIC50 [3]: 5.46 ± 1.05 µg/mL (≈ 15 µM) | MIC50 [4]: 8.36 ± 1 µg/mL (≈ 23 µM) | MIC50 [5]: 2.1 ± 0.19 µg/mL (≈ 5.78 µM) | MIC50 [6]: < 0.1 µg/mL | MIC50 [7]: > 64 µg/mL | MIC50 [8]: > 64 µg/mL | inhibition of the cytochrome bd complex [9]: selectively inhibit | IC50 [10]: 13.8 µg/mL (≈ 38 µM) | IC50 [11]: 0.04 ± 0.02 µg/mL (≈ 0.11 µM) | antiplasmodial selectivity index [11]: 345

CC(C)=CCC/C(C)=C/Cc1c(C)[nH]c2ccccc2c1=O [compound 9]
IC50 [1]: 2.52 ± 0.48 µg/mL (≈ 8.53 µM) | MIC50 [2]: 2.59 ± 0.34 µg/mL (≈ 8.77 µM) | MIC50 [3]: 3.96 ± 0.49 µg/mL (≈ 13.4 µM) | MIC50 [4]: 1.41 ± 0.45 µg/mL (≈ 4.77 µM) | MIC50 [5]: 4.5 ± 0.74 µg/mL (≈ 15.2 µM) | MIC50 [6]: < 0.1 µg/mL | MIC50 [7]: > 64 µg/mL | MIC50 [8]: > 64 µg/mL | melting point: 187 to 189 °C | IC50 [11]: 0.07 ± 0.02 µg/mL (≈ 0.237 µM) | antiplasmodial selectivity index [11]: 345

CC(C)=CCCC(C)=CCCC(C)=CCc1c(C)[nH]c2ccc3ccccc3c2c1=O [compound 17]
IC50 [1]: > 10 µg/mL | MIC50 [2]: > 64 µg/mL | MIC50 [3]: > 64 µg/mL | MIC50 [4]: > 64 µg/mL | MIC50 [5]: > 64 µg/mL | MIC50 [6]: > 64 µg/mL | MIC50 [7]: > 64 µg/mL | MIC50 [8]: > 64 µg/mL | IC50 [11]: 0.51 ± 0.18 µg/mL (≈ 1.23 µM)

COc1ccc2[nH]c(C)c(CC=C(C)CCC=C(C)CCC=C(C)C)c(=O)c2c1 [compound 18]
IC50 [1]: 1.64 ± 0.47 µg/mL (≈ 4.17 µM) | IC50 at 5 days [12]: ~1 µg/mL (≈ 2.54 µM) | MIC50 [2]: 49.2 ± 3.94 µg/mL (≈ 125 µM) | MIC50 [3]: > 64 µg/mL | MIC50 [4]: > 64 µg/mL | MIC50 [5]: > 64 µg/mL | MIC50 [6]: 6.75 ± 0.6 µg/mL (≈ 17.2 µM) | MIC50 Bacillus subtilis DSM10 [6]: significant growth inhibitory effect | MIC50 [7]: > 64 µg/mL | MIC50 [8]: > 64 µg/mL | IC50 [11]: 0.2 ± 0.04 µg/mL (≈ 0.508 µM)

CC(C)=CCCC(C)=CCCC(C)=CCc1c(C)[nH]c2cc3c(cc2c1=O)OCO3 [compound 19]
IC50 [1]: > 10 µg/mL | MIC50 [2]: > 64 µg/mL | MIC50 [3]: 34.6 ± 5.13 µg/mL (≈ 84.8 µM) | MIC50 [4]: > 64 µg/mL | MIC50 [5]: > 64 µg/mL | MIC50 [6]: 4.66 ± 0.5 µg/mL (≈ 11.4 µM) | MIC50 Bacillus subtilis DSM10 [6]: significant growth inhibitory effect | MIC50 [7]: > 64 µg/mL | MIC50 [8]: > 64 µg/mL | IC50 [10]: 4.4 µg/mL (≈ 10.8 µM) | melting point: 298 to 300 °C (dec.) | IC50 [11]: 0.42 ± 0.09 µg/mL (≈ 1.03 µM)
